This note sets out measurements from the supplement of paper PMC6045584.

Compound in one assay: Cn1nnc2c(C(N)=O)ncn2c1=O [TEMOZOLOMIDE]
Description: surviving fraction relative to DMSO-only wells; higher = less growth inhibition. As to conditions: exposure time: 5 days. The method, boiled down:
(§1)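 Surviving fraction was calculated by normalising CellTiter-Glo luminescence to the median of DMSO-only wells. Tumour cell lines in log phase were seeded in 384-well plates at 250–500 cells per well, and 24 hours later were exposed continuously for five days to inhibitors at 0.5, 1, 5, 10, 50, 100, 500 and 1000 nM.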

Compound in assay [1]: CNCc1ccc(-c2[nH]c3cc(F)cc4c3c2CCNC4=O)cc1
Described as above. To be noted: exposure time: 5 days. The method, boiled down: as §1

± gives the standard deviation of the averaged measurements.

Turning to HCC38 BREAST, the surviving fraction in the assay with TEMOZOLOMIDE (0.5 nM) came out at 1.34 ± 0.19; with TEMOZOLOMIDE (1 nM), 1.25 ± 0.04; in the assay with TEMOZOLOMIDE (5 nM) it was 1.31 ± 0.13; with TEMOZOLOMIDE (10 nM), 1.39 ± 0.032; in the assay with TEMOZOLOMIDE (50 nM), 1.33 ± 0.11; with TEMOZOLOMIDE (100 nM) it was 1.32 ± 0.06. In addition, the surviving fraction with TEMOZOLOMIDE (500 nM) worked out at 1.3 ± 0.26; in the assay with TEMOZOLOMIDE (1000 nM), 1.33 ± 0.11; in assay [1] (0.5 nM) it was 0.703 ± 0.16; in assay [1] (1 nM), 0.805 ± 0.24; in assay [1] (5 nM), 0.971 ± 0.31; in assay [1] (10 nM), 0.705 ± 0.14. For the same test system, the surviving fraction in assay [1] (50 nM) stood at 0.528 ± 0.1; in assay [1] (100 nM) it was 0.607 ± 0.047; in assay [1] (500 nM) it was 0.492 ± 0.22; in assay [1] (1000 nM) it was 0.45 ± 0.035.

Regarding HMLE3 BREAST, the surviving fraction in the assay with TEMOZOLOMIDE (0.5 nM) stood at 1.01 ± 0.053; in the assay with TEMOZOLOMIDE (1 nM), 1.12 ± 0.085; with TEMOZOLOMIDE (5 nM) it was 1.01 ± 0.11; with TEMOZOLOMIDE (10 nM) it was 1.04 ± 0.021; with TEMOZOLOMIDE (50 nM), 1.03 ± 0.039; in the assay with TEMOZOLOMIDE (100 nM), 1.03 ± 0.026. Moreover, the surviving fraction with TEMOZOLOMIDE (500 nM) turned out to be 1.03 ± 0.044; with TEMOZOLOMIDE (1000 nM), 1.15 ± 0.079; in assay [1] (0.5 nM) it was 1.13 ± 0.039; in assay [1] (1 nM) it was 1 ± 0.042; in assay [1] (5 nM) it was 1.11 ± 0.051; in assay [1] (10 nM), 1.07 ± 0.051. Besides, the surviving fraction in assay [1] (50 nM) came to 0.986 ± 0.17; in assay [1] (100 nM) it was 1.03 ± 0.082; in assay [1] (500 nM), 0.856 ± 0.14; in assay [1] (1000 nM), 0.879 ± 0.056.

On to HMT3552 BREAST, for which the surviving fraction with TEMOZOLOMIDE (0.5 nM) was 1.09 ± 0.094; with TEMOZOLOMIDE (1 nM), 1.07 ± 0.015; with TEMOZOLOMIDE (5 nM), 1.05 ± 0.038; with TEMOZOLOMIDE (10 nM), 1.09 ± 0.071; with TEMOZOLOMIDE (50 nM), 1.15 ± 0.06; with TEMOZOLOMIDE (100 nM), 1.19 ± 0.063. Further, the surviving fraction with TEMOZOLOMIDE (500 nM) was determined as 1.09 ± 0.039; with TEMOZOLOMIDE (1000 nM), 1.15 ± 0.022; in assay [1] (0.5 nM) it was 0.99 ± 0.063; in assay [1] (1 nM), 0.968 ± 0.043; in assay [1] (5 nM) it was 0.95 ± 0.031; in assay [1] (10 nM), 1 ± 0.0095. The surviving fraction in assay [1] (50 nM) worked out at 0.817 ± 0.037; in assay [1] (100 nM), 0.84 ± 0.022; in assay [1] (500 nM) it was 0.78 ± 0.042; in assay [1] (1000 nM) it was 0.723 ± 0.079.

For the test system HS578T BREAST, the surviving fraction in the assay with TEMOZOLOMIDE (0.5 nM) stood at 0.927 ± 0.11; with TEMOZOLOMIDE (1 nM) it was 0.886 ± 0.094; with TEMOZOLOMIDE (5 nM) it was 0.91 ± 0.15; with TEMOZOLOMIDE (10 nM) it was 0.913 ± 0.054; in the assay with TEMOZOLOMIDE (50 nM), 1.05 ± 0.1; with TEMOZOLOMIDE (100 nM), 0.916 ± 0.074. Besides, the surviving fraction with TEMOZOLOMIDE (500 nM) stood at 0.936 ± 0.12; in the assay with TEMOZOLOMIDE (1000 nM), 0.942 ± 0.12; in assay [1] (0.5 nM), 0.959 ± 0.13; in assay [1] (1 nM), 0.875 ± 0.042; in assay [1] (5 nM) it was 0.912 ± 0.11; in assay [1] (10 nM) it was 0.927 ± 0.17. For the same test system, the surviving fraction in assay [1] (50 nM) amounted to 0.892 ± 0.062; in assay [1] (100 nM) it was 0.937 ± 0.067; in assay [1] (500 nM), 0.763 ± 0.059; in assay [1] (1000 nM) it was 0.801 ± 0.13.

As to HCC70 BREAST, the surviving fraction with TEMOZOLOMIDE (0.5 nM) was 0.984 ± 0.016; with TEMOZOLOMIDE (1 nM), 1.04 ± 0.11; with TEMOZOLOMIDE (5 nM), 1.07 ± 0.064; with TEMOZOLOMIDE (10 nM), 1.08 ± 0.054; in the assay with TEMOZOLOMIDE (50 nM) it was 1.06 ± 0.079; in the assay with TEMOZOLOMIDE (100 nM), 1.15 ± 0.095. Besides, the surviving fraction in the assay with TEMOZOLOMIDE (500 nM) came to 1.06 ± 0.09; in the assay with TEMOZOLOMIDE (1000 nM), 1.09 ± 0.086; in assay [1] (0.5 nM), 1.07 ± 0.061; in assay [1] (1 nM), 1.12 ± 0.037; in assay [1] (5 nM), 1.16 ± 0.098; in assay [1] (10 nM), 1.1 ± 0.11. Besides, the surviving fraction in assay [1] (50 nM) was 1.12 ± 0.12; in assay [1] (100 nM), 1.11 ± 0.017; in assay [1] (500 nM), 1.12 ± 0.11; in assay [1] (1000 nM), 1.12 ± 0.052.

Consider G292 BONE, for which the surviving fraction with TEMOZOLOMIDE (0.5 nM) stood at 1.01 ± 0.015; in the assay with TEMOZOLOMIDE (1 nM), 0.9995 ± 0.0082; with TEMOZOLOMIDE (5 nM) it was 0.981 ± 0.037; with TEMOZOLOMIDE (10 nM), 1.05 ± 0.018; with TEMOZOLOMIDE (50 nM), 1.04 ± 0.062; in the assay with TEMOZOLOMIDE (100 nM), 1.02 ± 0.025. Moreover, the surviving fraction with TEMOZOLOMIDE (500 nM) stood at 0.986 ± 0.048; in the assay with TEMOZOLOMIDE (1000 nM) it was 0.992 ± 0.029; in assay [1] (0.5 nM) it was 0.998 ± 0.075; in assay [1] (1 nM), 0.981 ± 0.037; in assay [1] (5 nM), 1.05 ± 0.053; in assay [1] (10 nM), 0.975 ± 0.012. Moreover, the surviving fraction amounted to 0.9877 ± 0.0081 in assay [1] (50 nM), 0.932 ± 0.021 in assay [1] (100 nM), 0.8 ± 0.044 in assay [1] (500 nM) and 0.775 ± 0.035 in assay [1] (1000 nM).
